Measurements taken from ChEMBL document CHEMBL1914361, “Shishicrellastatins, inhibitors of cathepsin B, from the marine sponge Crella (Yvesia) spinulata” (Bioorg Med Chem, 2011).

Molecular target: Cathepsin B (Bos taurus, UniProt P07688)
Test: Inhibition of bovine cathepsin B after 1 hr by fluorescence assay

SMILES	IC50 [µM]
C[C@H]([C@@H]1C[C@H]2C[C@](C)(OC2(C)C)[C@@H](CC[C@@H](C)[C@H]2CC=C3C4=C(CC[C@@]32C)[C@@]2(C)C[C@H](OS(=O)(=O)O)[C@@H](OS(=O)(=O)O)[C@H](C)C2=CC4)O1)[C@H]1CC[C@H]2C3=C(CC[C@]12C)[C@]12CC[C@](O)(OC1)[C@@H](C)[C@@H]2[C@@H](OS(=O)(=O)O)C3 [SHISHICRELLASTATIN B]	6.81
C[C@H]([C@@H]1C[C@H]2C[C@](C)(OC2(C)C)[C@@H](CC[C@@H](C)[C@H]2CC[C@H]3C4=C(CC[C@]23C)[C@@]2(C)C[C@H](OS(=O)(=O)O)[C@@H](OS(=O)(=O)O)[C@H](C)C2=CC4)O1)[C@H]1CC[C@H]2C3=C(CC[C@]12C)[C@]12CC[C@](O)(OC1)[C@@H](C)[C@@H]2[C@@H](OS(=O)(=O)O)C3 [SHISHICRELLASTATIN A]	6.79
